# Where two headings read alike, the source gives them in different places.
# Experiments:
# [1] = tested on: HCT116 (human colon carcinoma cells); assay: Tumor cell proliferation inhibition test, CCK-8 method (Example 19); type: cell-based
# Method: (§1) A part of the compounds prepared in the examples of the present disclosure were subjected to a tumor cell proliferation inhibition test by using a CCK-8 method. A cell line HCT116 (human colon carcinoma cells) and SW1990 (human pancreatic carcinoma cells) were purchased from Shanghai Meixuan Technology Co., Ltd. Samples (a part of the compounds prepared in the examples) were dissolved in DMSO (Merck), prepared into a concentration of 10 mM, and finally triply diluted in DMEM or McCoy's 5A 1640 medium to 8 concentration gradients. A cell culture solution was collected when a cell culture met a test requirement, 10 μL of the cell culture solution was uniformly coated on a cell counting plate, cells were counted for 3 times under a microscope, and a cell density was calculated by taking an average value; and a 96-well plate (Corning, #3599) was taken, 200 μL of the cell culture solution was added into each well for cell inoculation at a cell concentration of 6×10^3 cells per well, and the inoculated 96-well plate was incubated in a cell incubator containing 5% CO2 at 37° C. for 24 h. An old culture medium was removed by suction, 200 μL of the triply diluted sample DMEM or McCoy's 5A 1640 medium at an initial concentration of 10 μmol/L was added to each well, the DMSO content was controlled to be 1%, three duplicate wells were set, PBS was used as a blank control, and the plate was incubated in the incubator for 72 h. The original DMEM or McCoy's 5A 1640 medium in the 96-well plate and a PBS buffer in a final row were sucked out, a prepared CCK-8 solution (90% DMEM or McCoy's 5A 1640 medium+10% CCK-8) was added, the mixture was incubated in an incubator, and an absorbance was read by using a Biotek microplate reader. Cell growth inhibition rate IC %=(blank control well OD value−administration well OD value)/blank control well OD value×100%.
# [2] = tested on: SW1990 (human pancreatic carcinoma cells); assay: as above; type: cell-based
# Method: as §1
# [3] = In-vivo antitumor activity test in human stromal tumor SHG44 (subcutaneous tumor block in nude mice); design: species or system BALB/C nude mice; conditions: for RTV (d22) / Tumor inhibition rate % / Body weight of animals (After a tumor is removed): SHG44; for Tumor inhibition rate % / Body weight of animals (After a tumor is removed): d22; for Body weight of animals (After a tumor is removed): in g (unit assumed)
# Method: (§2) Animals: BALB/C nude mice (SPF grade), male, and 18-20 g. The compounds were firstly added with DMSO at a total amount of 4%, then added with Tween-80 at a total amount of 2% for assisting dissolution, then added with PEG300 at a total amount of 5%, and finally added with sterilized normal saline to be prepared into a solution at 1 mg/mL. Idasanutlin was firstly added with DMSO at a total amount of 4%, then added with Tween-80 at a total amount of 2% for assisting dissolution, then added with PEG300 at a total amount of 5%, and finally added with sterilized normal saline to be prepared into a solution at 2.5 mg/mL.
# (§3) A well-grown human stromal tumor SHG44 mass was taken and aseptically cut into uniform small blocks of about 3 mm in size, and a right axilla of each mouse was subcutaneously inoculated with one block through a trocar. […] The animals were regrouped according to a tumor size. The animals with too large and too small tumors were sifted out. An average tumor volume in each group was approximately the same. An administration was started according to the following solution with an administration volume of 0.2 mL/20 g body weight. A long diameter a (mm) of the tumor and a short diameter b (mm) vertical to the tumor were measured by a digital display electronic caliper 2 times a week from day 9 of the inoculation. A tumor volume was calculated by the formula: TV=ab^2/2, and a relative tumor volume was calculated by the formula: RTV=Vt/Vo, wherein Vo was the obtained tumor volume measured at a cage separation (i.e. d1) and Vt was the tumor volume measured at each time. The animals were sacrificed 30 days after the inoculation (d22) and weighed, tumor mass was obtained by dissection and weighed, and the results were determined according to the following formula: […]
# [4] = tested on: human gastric carcinoma MGC803; assay: In-vivo antitumor activity test in human gastric carcinoma MGC803 (subcutaneous tumor block in nude mice); design: species or system BALB/C nude mice; conditions: for RTV (d22) / Body weight of animals (After a tumor is removed) / Tumor inhibition rate %: MGC803; for Body weight of animals (After a tumor is removed) / Tumor inhibition rate %: d22
# Method: as §2
# as §3, with “gastric carcinoma MGC803” for “stromal”, “tumor” for “tumor SHG44”
# [5] = tested on: human esophageal cancer KYSE-150; assay: In-vivo antitumor activity test in human esophageal cancer KYSE-150 (subcutaneous tumor block in nude mice); design: species or system BALB/C nude mice; conditions: for RTV (d22) / Body weight of animals (After a tumor is removed) / Tumor inhibition rate %: KYSE-150; for Body weight of animals (After a tumor is removed) / Tumor inhibition rate %: d22
# Method: as §2
# as §3, with “esophageal cancer KYSE-150” for “stromal”, “tumor” for “tumor SHG44”
# [6] = 10 mg/kg, Ipx5 each week for 2 continuous weeks
smiles,measurement,setting,value
COc1cc(C(=O)NCCOCCOCCOCCOCCC(=O)N[C@@H](C(=O)N[C@@H](CCCNC(N)=O)C(=O)Nc2ccc(COC(=O)N3CCN(C(=O)O[C@H]4CC[C@@]5(C)[C@H](CC[C@@H]6[C@@H]5[C@H](O)C(=O)[C@]5(C)[C@@H](c7ccc(=O)oc7)CC[C@]65O)C4)CC3)cc2)C(C)C)ccc1NC(=O)[C@@H]1N[C@@H](CC(C)(C)C)[C@](C#N)(c2ccc(Cl)cc2F)[C@H]1c1cccc(Cl)c1F [Compound I-1],IC50,[1]; 72 h,0.034 µM
same,IC50,[2]; 72 h,0.007 µM
same,in-vivo antitumor activity of the human stromal tumor SHG44 (in words),[3],good in-vivo antitumor activity
same,RTV (d22),[3]; [6],2.34 ± 0.32
same,Tumor inhibition rate %,[3]; [6],52.03%
same,Body weight of animals (After a tumor is removed),[3]; [6],24.78 ± 2.38
same,in-vivo antitumor activity of the human gastric carcinoma MGC803 (in words),[4],good in-vivo antitumor activity
same,RTV (d22),[4]; [6],2.45 ± 0.54
same,Body weight of animals (After a tumor is removed),[4]; [6],26.15 ± 1.14
same,Tumor inhibition rate %,[4]; [6],38.54%
same,in-vivo antitumor activity of the human esophageal cancer KYSE-150 (in words),[5],good in-vivo antitumor activity
same,RTV (d22),[5]; [6],4.87 ± 0.92
same,Body weight of animals (After a tumor is removed),[5]; [6],24.51 ± 1.40
same,Tumor inhibition rate %,[5]; [6],50.45%
"COc1cc(C(=O)O)ccc1NC(=O)[C@@H]1N[C@@H](CC(C)(C)C)[C@](C#N)(c2ccc(Cl)cc2F)[C@H]1c1cccc(Cl)c1F [Idasanutlin, reference compound]",IC50,"[1]; Homo sapiens, HCT-116, CCK-8, 72 h, Table 1, read-out: IC50 HCT116",1.06 µM
same,IC50,"[2]; Homo sapiens, SW1990, CCK-8, 72 h, Table 1, read-out: IC50 SW1990",2.98 µM
same,RTV (d22),"[3]; 25 mg/kg, Igx14",2.95 ± 0.41
same,Tumor inhibition rate %,"[3]; 25 mg/kg, Igx14",39.59%
same,Body weight of animals (After a tumor is removed),"[3]; 25 mg/kg, Igx14",24.47 ± 1.66
same,RTV (d22),"[4]; 25 mg/kg, Igx14",2.74 ± 0.81
same,Body weight of animals (After a tumor is removed),"[4]; 25 mg/kg, Igx14",23.58 ± 1.56
same,Tumor inhibition rate %,"[4]; 25 mg/kg, Igx14",31.36%
same,RTV (d22),"[5]; 25 mg/kg, Igx14",4.79 ± 0.41
same,Body weight of animals (After a tumor is removed),"[5]; 25 mg/kg, Igx14",24.03 ± 0.95
same,Tumor inhibition rate %,"[5]; 25 mg/kg, Igx14",51.17%
